{"source": "patent US20100323975A1", "about": "“THERAPEUTIC AGENT FOR CEREBRAL ISCHEMIC INJURY” (OTSUKA PHARMACEUTICAL FACTORY, INC., priority 2007, published 2010)", "key": {"Wistar male rats": {"system": "Wistar male rats", "test": "Identification of side effects after intravenous administration (Test Example 2)", "conditions": "rat, in vivo", "procedure": "(§1) 7- to 9-week-old Wistar male rats were divided into the following 8 administration groups. The number of rats in each group was set at 4. […]\nL-histidine hydrochloride was dissolved in water for injection purpose, and the obtained solution was then adjusted to pH 6.0 with a sodium hydroxide aqueous solution. The obtained injection solution (L-histidine concentration: 10% (W/V)) was administered into the caudal vein of each rat at a rate of 60 mL/kg/hr for 10 minutes.\n(§2) L-histidine was added to water for injection purpose, and acetic acid was further added thereto, so as to dissolve L-histidine in the solution. The obtained solution was adjusted to pH 6.0 with a sodium hydroxide aqueous solution. The obtained injection solution (L-histidine concentration: 10% (W/V)) was administered into the caudal vein of each rat at a rate of 60 mL/kg/hr for 10 minutes.\nas §2, with “citric” for “acetic”\nβ-alanyl-L-histidine was added to water for injection purpose, and the obtained solution was then adjusted to pH 7 with hydrochloric acid. The obtained injection solution (L-histidine concentration: 10% (W/V)) was administered into the caudal vein of each rat at a rate of 60 mL/kg/hr for 10 minutes. […]\n(§3) After administration of the agent, blood was collected from each rat at regular time intervals, and the concentration of L-histidine (monomer) in blood was then measured using a high speed amino acid analyzer L-8800A (manufactured by Hitachi High-Technologies Corporation). […] In addition, the body temperature, blood pressure, and cardiac rate of each test animal were measured during the period from before administration of the agent until after the administration of the agent, and at the same time, the appearance of each test animal was observed, so as to examine the presence or absence of side effects caused by administration of the agent. The L-histidine concentration in blood was measured 15 minutes after the administration of the agent, and the presence or absence of side effects caused by such administration of the agent was examined."}, "[1]": {"system": "model of middle cerebral artery occlusion and subsequent reperfusion (cerebral ischemic injury)", "test": "Infarction rate and cerebral edema rate in model of middle cerebral artery occlusion and subsequent reperfusion (Test Example 5)", "format": "in vivo, Wistar male rats", "conditions": "Production Example 4 injection (0.64 mol/L), caudal vein 60 mL/kg/hr for 10 minutes, immediately after and 6 hours after reperfusion; 120 min occlusion; 24 hours after reperfusion; FIG. 2", "from_the_text": "Approximately 7-week-old Wistar male rats were used. The method of Koizumi et al. (Nou-socchu (Cerebral Apoplexy), Vol. 8, pp. 1-8, 1986) was applied to the rats under halothane anesthesia, so as to produce models of middle cerebral artery occlusion and subsequent reperfusion. Specifically, each rat was fixed under natural aspiration conditions under anesthesia with gas (initial anesthesia: performed in room air containing 3% halothane; continuous anesthesia: performed in room air containing 1% halothane), and the neck of the rat was then subjected to median incision. […]\nOn the day after the administration of the agent (24 hours after cerebral ischemia-reperfusion), a test animal was anesthetized with ether, and the brain was then excised. […] A slice of brain section was placed, with a surface to be measured down, into each well of a 12-well plate, which had been filled with a 2% TTC solution prepared by dissolving 2,3,5-triphenyltetrazolium chloride (TTC) in a phosphate buffered saline. […] Thus, the area of an infarct on the measurement surface of each brain section (the site in which brain tissue was considered to be necrosed) was measured, and the obtained value was then multiplied by the thickness of the brain section, so as to obtain the volume of an infarct in each brain section. […]"}, "[2]": {"test": "L-histidine concentration in blood after intravenous administration (Test Example 2)", "conditions": "male, Wistar, rat, in vivo, 15 min", "procedure": "as §1\nThe therapeutic agent for cerebral ischemic injury obtained in Production Example 2 was diluted by a factor of 2, and the thus diluted solution was administered into the caudal vein of each rat at a rate of 60 mL/kg/hr for 10 minutes. […]\nas §2\nas §2, with “citric” for “acetic”, “minutes. […]” for “minutes.”\nas §3"}, "[3]": {"test": "Solubility in water at 25° C.", "format": "physicochemical"}}, "note": "Peptide text beside a SMILES is read from it.", "data": [{"smiles": "NCC(=O)N[C@@H](Cc1c[nH]cn1)C(=O)O", "note": "[glycyl-L-histidine] (H-Gly-His-OH)", "values": [{"measurement": "Side effects", "setting": "Wistar male rats", "value": "None"}, {"measurement": "Cerebral edema rate compared with control group", "setting": "[1]", "value": "remarkably suppressed"}, {"measurement": "Infarction rate compared with control group", "setting": "[1]", "value": "remarkably suppressed"}, {"measurement": "L-histidine concentration in blood (mean value)", "setting": "[2]", "value": 6.2, "unit": "mM"}, {"measurement": "solubility", "setting": "[3]", "value": "≥ 3500", "unit": "mM"}]}]}
